In ChEMBL document CHEMBL1201862, “PubChem BioAssay data set” (2004):
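Method: 48-hour compound exposure of cells in 96-well plates, five concentrations, linear interpolation of endpoints. At the GI50, growth is halved.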 Active and inactive are the calls of the source. Rule as the data show it: active = GI50 up to about 1.1 µM and inactive = higher.

What was measured:
Experiment in all cases: NCI anticancer screen, dose series, 48 h
ACHN = test system: ACHN
A498 = test system: A498
EKVX = test system: EKVX
OVCAR-5 = test system: OVCAR-5
SN12C = test system: SN12C
HCT-116 = test system: HCT-116
HOP-92 = test system: HOP-92
MOLT-4 = test system: MOLT-4
NCI-H226 = test system: NCI-H226
HT-29 = test system: HT-29
SW-620 = test system: SW-620
UO-31 = test system: UO-31
SK-MEL-5 = test system: SK-MEL-5
SF-295 = test system: SF-295
RXF 393 = test system: RXF 393

Row | Structure (SMILES) | GI50 (ACHN) | GI50 (A498) | GI50 (EKVX) | GI50 (OVCAR-5) | GI50 (SN12C) | GI50 (HCT-116) | GI50 (HOP-92) | GI50 (MOLT-4) | GI50 (NCI-H226) | GI50 (HT-29) | GI50 (SW-620) | GI50 (UO-31) | GI50 (SK-MEL-5) | GI50 (SF-295) | GI50 (RXF 393)
1 | Oc1ccc(-c2n[nH]c(S)n2)cc1 | > 100 µM (inactive) | > 100 µM (inactive) | > 100 µM (inactive) | > 100 µM (inactive) | > 100 µM (inactive) | > 100 µM (inactive) | > 100 µM (inactive) | > 100 µM (inactive) | > 100 µM (inactive) | > 100 µM (inactive) | > 100 µM (inactive) | > 100 µM (inactive) | > 100 µM (inactive) | > 100 µM (inactive) | –
2 | CC(=O)OCC1OC(n2c(=O)[nH]c(=O)c3nn[nH]c32)C(OC(C)=O)C(OC(C)=O)C1OC(C)=O (stereo not given) | > 100 µM (inactive) | > 100 µM (inactive) | > 100 µM (inactive) | > 100 µM (inactive) | > 100 µM (inactive) | > 100 µM (inactive) | > 100 µM (inactive) | > 100 µM (inactive) | – | > 100 µM (inactive) | > 100 µM (inactive) | > 100 µM (inactive) | > 100 µM (inactive) | > 100 µM (inactive) | > 100 µM (inactive)
3 | Cc1ccc(/C=C(\NC(=O)c2ccccc2)c2nc3ccccc3[nH]2)cc1 | 47.5 µM (inactive) | 38 µM (inactive) | 74.5 µM (inactive) | > 100 µM (inactive) | 61 µM (inactive) | 37.2 µM (inactive) | 28.3 µM (inactive) | – | – | 37.5 µM (inactive) | 50.4 µM (inactive) | 48.9 µM (inactive) | 12.8 µM (inactive) | 36.6 µM (inactive) | > 100 µM (inactive)
4 | O=C(O)C12C3CCC(C3)C1(C(=O)O)C1CCC2C1 (stereo not given) | > 100 µM (inactive) | > 100 µM (inactive) | > 100 µM (inactive) | > 100 µM (inactive) | > 100 µM (inactive) | 45.3 µM (inactive) | > 100 µM (inactive) | > 100 µM (inactive) | > 100 µM (inactive) | > 100 µM (inactive) | 18.4 µM (inactive) | > 100 µM (inactive) | > 100 µM (inactive) | > 100 µM (inactive) | 34.4 µM (inactive)
5 | c1ccc2c(c1)nnn2CNc1ccc(N2CCCCC2)cc1 | > 100 µM (inactive) | > 100 µM (inactive) | > 100 µM (inactive) | – | > 100 µM (inactive) | > 100 µM (inactive) | > 100 µM (inactive) | > 100 µM (inactive) | > 100 µM (inactive) | > 100 µM (inactive) | > 100 µM (inactive) | > 100 µM (inactive) | – | > 100 µM (inactive) | > 100 µM (inactive)
6 | Cc1nc(N)nc(N)c1CCCCc1ccc(N)cc1 | 4.12 µM (inactive) | – | 9.23 µM (inactive) | 4.46 µM (inactive) | 4.3 µM (inactive) | 0.569 µM (active) | 3.93 µM (inactive) | 1.58 µM (inactive) | 25.8 µM (inactive) | 0.729 µM (active) | 3.29 µM (inactive) | 13.2 µM (inactive) | 3.43 µM (inactive) | 1.94 µM (inactive) | –
7 | O=C(c1ccco1)N(C(=S)N1CCN(c2ccccc2)CC1)c1ccccc1 | > 100 µM (inactive) | – | – | > 100 µM (inactive) | > 100 µM (inactive) | > 100 µM (inactive) | > 100 µM (inactive) | > 100 µM (inactive) | 25.6 µM (inactive) | > 100 µM (inactive) | > 100 µM (inactive) | 66.8 µM (inactive) | > 100 µM (inactive) | > 100 µM (inactive) | > 100 µM (inactive)
8 | COc1cc(C2(C)SCCCS2)cc(OC)c1OC | > 100 µM (inactive) | > 100 µM (inactive) | > 100 µM (inactive) | > 100 µM (inactive) | > 100 µM (inactive) | > 100 µM (inactive) | > 100 µM (inactive) | > 100 µM (inactive) | > 100 µM (inactive) | > 100 µM (inactive) | > 100 µM (inactive) | > 100 µM (inactive) | > 100 µM (inactive) | > 100 µM (inactive) | –
9 | Cc1cc(N(CCC#N)CCC#N)ccc1/C=C1\N=C(c2cc([N+](=O)[O-])ccc2Cl)N(NC(=O)c2ccc(/N=C\c3ccc(N(CCC#N)S(C)(=O)=O)cc3C)cc2)C1=O | 89.9 µM (inactive) | > 100 µM (inactive) | > 100 µM (inactive) | > 100 µM (inactive) | > 100 µM (inactive) | > 100 µM (inactive) | 98.9 µM (inactive) | – | > 100 µM (inactive) | 54.5 µM (inactive) | > 100 µM (inactive) | > 100 µM (inactive) | 38.2 µM (inactive) | – | > 100 µM (inactive)
10 | O=C1C2c3[nH]c4ccccc4c3[C@@H]3CCCCC3C2C(=O)N1c1ccccc1 (stereo not given in full) | 25.4 µM (inactive) | 28.6 µM (inactive) | 15.3 µM (inactive) | 16.8 µM (inactive) | 17.8 µM (inactive) | – | – | 19 µM (inactive) | 21 µM (inactive) | 19.7 µM (inactive) | 19.1 µM (inactive) | 17.3 µM (inactive) | 17.9 µM (inactive) | 21.1 µM (inactive) | 16.7 µM (inactive)
11 | ClC(/N=N/c1ccccc1)=N/Nc1ccccc1 | 34.8 µM (inactive) | > 100 µM (inactive) | 96.8 µM (inactive) | > 100 µM (inactive) | > 100 µM (inactive) | > 100 µM (inactive) | > 100 µM (inactive) | > 100 µM (inactive) | > 100 µM (inactive) | > 100 µM (inactive) | 31.8 µM (inactive) | – | – | 53.8 µM (inactive) | > 100 µM (inactive)
12 | Cc1cccc(N2C(=O)/C(=C/c3ccc(N(CCC#N)CCC#N)cc3C)N=C2c2cc([N+](=O)[O-])ccc2Cl)c1 | > 100 µM (inactive) | > 100 µM (inactive) | 68.1 µM (inactive) | > 100 µM (inactive) | > 100 µM (inactive) | 85.7 µM (inactive) | > 100 µM (inactive) | 46.5 µM (inactive) | > 100 µM (inactive) | 45.5 µM (inactive) | > 100 µM (inactive) | > 100 µM (inactive) | > 100 µM (inactive) | > 100 µM (inactive) | –
13 | CC1(C)O/C(=C\c2ccccc2)C(=O)/C(=C/c2ccccc2)O1 | 33.8 µM (inactive) | > 100 µM (inactive) | 37.9 µM (inactive) | 14.7 µM (inactive) | 47.6 µM (inactive) | 26.4 µM (inactive) | 29.9 µM (inactive) | 14.7 µM (inactive) | 17.7 µM (inactive) | 29.4 µM (inactive) | 55.1 µM (inactive) | 19.1 µM (inactive) | 14.4 µM (inactive) | 44.9 µM (inactive) | 13.9 µM (inactive)
14 | COC(=O)C1CC(C(=O)OC)c2nc3cc(C)ccc3nc21 (stereo not given) | > 100 µM (inactive) | > 100 µM (inactive) | > 100 µM (inactive) | > 100 µM (inactive) | > 100 µM (inactive) | – | > 100 µM (inactive) | > 100 µM (inactive) | > 100 µM (inactive) | 62.7 µM (inactive) | > 100 µM (inactive) | > 100 µM (inactive) | > 100 µM (inactive) | > 100 µM (inactive) | –
15 | CN(C)NC(=O)/C(=C/c1ccc(Cl)cc1)NC(=O)c1ccccc1 | > 100 µM (inactive) | > 100 µM (inactive) | > 100 µM (inactive) | > 100 µM (inactive) | > 100 µM (inactive) | > 100 µM (inactive) | > 100 µM (inactive) | > 100 µM (inactive) | > 100 µM (inactive) | > 100 µM (inactive) | – | 57.1 µM (inactive) | > 100 µM (inactive) | > 100 µM (inactive) | > 100 µM (inactive)
16 | CN1CC[C@]2(C)c3cc(O)ccc3CC3CCCC1C32C (stereo not given in full) | > 100 µM (inactive) | > 100 µM (inactive) | > 100 µM (inactive) | > 100 µM (inactive) | > 100 µM (inactive) | > 100 µM (inactive) | > 100 µM (inactive) | > 100 µM (inactive) | > 100 µM (inactive) | > 100 µM (inactive) | > 100 µM (inactive) | 89.7 µM (inactive) | > 100 µM (inactive) | > 100 µM (inactive) | > 100 µM (inactive)
17 | COC(=O)C1=Cc2cc(OC)c(OC)cc2[C@H](c2ccc(OC)c(OC)c2)C1C(=O)OC (stereo not given in full) | > 100 µM (inactive) | > 100 µM (inactive) | > 100 µM (inactive) | > 100 µM (inactive) | > 100 µM (inactive) | > 100 µM (inactive) | 45.8 µM (inactive) | > 100 µM (inactive) | > 100 µM (inactive) | 75.9 µM (inactive) | > 100 µM (inactive) | > 100 µM (inactive) | > 100 µM (inactive) | > 100 µM (inactive) | > 100 µM (inactive)
18 | Cc1ccc2[nH]c3c4c5ccccc5nc-4c[nH]c3c2c1 | 16.7 µM (inactive) | – | 15.2 µM (inactive) | 17.1 µM (inactive) | 16.3 µM (inactive) | 17.1 µM (inactive) | – | 16.2 µM (inactive) | 16.1 µM (inactive) | 11.6 µM (inactive) | 13.7 µM (inactive) | 16.7 µM (inactive) | – | 17.2 µM (inactive) | 13.8 µM (inactive)
19 | CCOC(=O)C(=O)Nc1ccc([N+](=O)[O-])cc1C#N | > 100 µM (inactive) | – | > 100 µM (inactive) | > 100 µM (inactive) | > 100 µM (inactive) | > 100 µM (inactive) | > 100 µM (inactive) | > 100 µM (inactive) | > 100 µM (inactive) | > 100 µM (inactive) | > 100 µM (inactive) | > 100 µM (inactive) | > 100 µM (inactive) | > 100 µM (inactive) | > 100 µM (inactive)
